What was measured:
[1] = test system: eye; settings: in vivo; cited from earlier work
[2] = test system: rats; settings: administration to rats; cited from earlier work
[3] = test system: humans; settings: studies in humans; cited from earlier work
[4] = test system: mice; settings: administration to mice; cited from earlier work
[5] = target: T1, S1P lyase (Mus musculus, UniProt Q8R0X7); settings: when administered to mice; cited from earlier work
T1 sequence (Q8R0X7 1-568): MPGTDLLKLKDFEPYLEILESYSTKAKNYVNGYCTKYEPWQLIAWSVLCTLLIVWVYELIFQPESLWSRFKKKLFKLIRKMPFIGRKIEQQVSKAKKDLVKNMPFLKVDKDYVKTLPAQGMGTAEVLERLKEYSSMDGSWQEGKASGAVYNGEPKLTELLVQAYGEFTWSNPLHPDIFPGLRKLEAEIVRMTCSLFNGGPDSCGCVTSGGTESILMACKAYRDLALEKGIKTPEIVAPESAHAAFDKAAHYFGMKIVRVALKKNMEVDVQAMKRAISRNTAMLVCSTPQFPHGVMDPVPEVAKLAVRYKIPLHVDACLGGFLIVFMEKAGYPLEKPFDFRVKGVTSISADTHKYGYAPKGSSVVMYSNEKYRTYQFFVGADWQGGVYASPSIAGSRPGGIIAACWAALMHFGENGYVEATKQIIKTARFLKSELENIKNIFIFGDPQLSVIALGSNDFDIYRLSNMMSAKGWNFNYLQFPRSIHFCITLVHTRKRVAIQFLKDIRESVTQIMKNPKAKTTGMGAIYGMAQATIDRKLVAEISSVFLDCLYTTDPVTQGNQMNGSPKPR

[6] = Examination of 1.0% THI cream on a mixing plate; type: physicochemical; settings: 100 mg THI in 10 g base cream (1.0%)
Experimental: A topical formulation containing 100 mg of THI in 10 g of base cream was prepared as follows. […] A smooth cream was obtained by levigation in a marble mortar and pestle. A dime-sized portion of the […] material was then incorporate geometrically with similar-sized portions of base and mixed thoroughly. […] Application of the finished cream to the skin left no residue.

[7] = test system: skin; settings: cited from earlier work
[8] = test system: skin; settings: clinical studies; could be related to formaldehyde release; cited from earlier work
[9] = laboratory study; cited from earlier work
[10] = concentrations higher than in products; attributed to formaldehyde release; cited from earlier work
[11] = test system: skin; settings: human exposure studies and clinical experience; cited from earlier work
[12] = chronic studies; cited from earlier work
[13] = subchronic oral, high doses; cited from earlier work
[14] = dermal laboratory studies; cited from earlier work
[15] = test system: skin; settings: clinical studies; cited from earlier work
[16] = in vivo; cited from earlier work
[17] = in vivo; cited from earlier work; remark: listed apart in the source

Carbomer
eye irritation [1]: no to moderate eye irritation

CC(=O)c1nc(C(O)C(O)C(O)CO)c[nH]1 (stereo not shown) [THI, 2-acetyl-4-tetrahydroxybutylimidazole]
accumulation of mature T cells in the thymus [2]: causes the accumulation of mature T cells in the thymus
lymphopenia [2]: induces lymphopenia
immunological effects in humans [3]: no immunological effects
accumulation of mature T cells in the thymus [4]: causes the accumulation of mature T cells in the thymus
lymphopenia [4]: induces lymphopenia
S1P lyase activity [5]: inhibits S1P lyase activity
dissolution of THI in the cream base [6]: at least partially dissolving in the cream base

CC1(C)C(=O)N(CO)C(=O)N1CO [DMDM hydantoin, 1,3-Bis(hydroxymethyl)-5,5-dimethylimidazolidine-2,4-dione]
absorption from the skin [7]: poorly absorbed from the skin
skin irritation [8]: some observations of skin irritation
adverse effects of oral exposure [9]: did not result in any adverse effects
in vitro mutagenicity [10]: positive results in some in vitro mutagenicity studies

CCCCCCCCCCCCCCCCCC(=O)OCC(O)CO (stereo not shown) [glyceryl stearate, Glyceryl stearate]
sensitization, phototoxicity, photosensitization [11]: non-sensitizing, non-phototoxic and non-photosensitizing
carcinogenic effects [12]: no carcinogenic effects
effects on reproduction [12]: no adverse effects on reproduction

OCCOc1ccccc1 [phenoxyethanol, 2-Phenoxyethanol]
organ weights [13]: increased weights of some organs
birth defects [14]: did not cause any birth defects
delayed hypersensitivity [15]: did not cause delayed hypersensitivity
phototoxicity [15]: nonphototoxic
primary and cumulative irritation [15]: neither a primary nor a cumulative irritant
toxicity via oral and dermal administration [16]: practically nontoxic

PEG-100 stearate
changes in growth, histopathologic observations or hematologic values [17]: no significant changes

— US10624877B2, “Composition and method for treatment of symptoms associated with various skin conditions” (priority 2011, dated 2020)
